biological target: BTK (Homo sapiens, UniProt Q06187); assay: biochemical; settings: read-out: BTK inhibition (%)
Sequence (Q06187 402-655 limits assumed): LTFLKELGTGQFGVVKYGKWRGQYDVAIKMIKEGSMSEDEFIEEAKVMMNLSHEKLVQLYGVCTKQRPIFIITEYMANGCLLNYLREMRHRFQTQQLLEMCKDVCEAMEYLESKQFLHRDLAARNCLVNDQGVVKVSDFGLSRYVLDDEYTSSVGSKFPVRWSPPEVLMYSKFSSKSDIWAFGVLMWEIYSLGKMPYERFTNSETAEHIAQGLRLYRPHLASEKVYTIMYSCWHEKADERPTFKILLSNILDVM

Row | SMILES | inhibition at 10 µM [%]
1 | C[C@](O)(COc1ccc(C#N)cc1)C(=O)Nc1ccc(C#N)c(C(F)(F)F)c1 [PCM-0095045] | -0.8
2 | C=C1CC[C@H]2[C@@H](/C=C(\C)C(=O)[C@@]3(OC(C)=O)C[C@H](C)[C@H](OC(=O)c4ccccc4)[C@@H]3[C@H]1OC(C)=O)C2(C)C [PCM-0216520] | -20.1

same assay, conditions: read-out: BTK inhibition (%), 0.75 uM BTK, […] probe 3l, 15 min preincubation

Row | SMILES | inhibition at 10 µM [%]
3 | COc1cc2c(cc1O)[C@@H](Cc1ccc(O)c(Oc3ccc(C[C@@H]4c5cc(OC)c(OC)cc5CCN4C)cc3)c1)N(C)CC2 [PCM-0216427] | 10.8
4 | O=C(c1ccc(OCCCc2cnc[nH]2)cc1)C1CC1 [PCM-0065087] | -14.5
5 | O=C(O)C(Cc1c[nH]c2ccccc12)N1C(=O)c2ccccc2C1=O (centres unmarked) [PCM-0095449] | 7.6
6 | c1ccc(NCc2ccc(CNc3ccccn3)cc2)nc1 [PCM-0095395] | -4.8
7 | O=c1[nH]c2ccccc2n1CCN1CCN(c2cccc(C(F)(F)F)c2)CC1 [PCM-0214925] | -34.2
8 | C/C=C(/C)C(=O)O[C@H]1Cc2cc3ccc(=O)oc3cc2OC1(C)C [PCM-0214953] | 0.8
9 | NNc1nnc(NN)c2ccccc12 [PCM-0215993] | 9.3
10 | CCC1C/C(=C\c2cccnc2)C(=O)/C(=C/c2cccnc2)C1 (centres unmarked) [PCM-0215528] | 10
11 | CC1(C)CC[C@]2(C(=O)O[C@@H]3O[C@H](CO[C@@H]4O[C@H](CO)[C@@H](O)[C@H](O)[C@H]4O)[C@@H](O)[C@H](O)[C@H]3O)CC[C@]3(C)C(=CC[C@@H]4[C@@]5(C)CC[C@H](O[C@@H]6OC[C@H](O)[C@H](O)[C@H]6O)[C@@](C)(CO)[C@@H]5CC[C@]43C)[C@@H]2C1 [PCM-0216172] | 13.9
12 | CCCNCC(O)COc1ccccc1C(=O)CCc1ccccc1 (centres unmarked) [PCM-0064846] | 2.3
13 | COc1cc(C(=O)NS(=O)(=O)c2ccccc2C)ccc1Cc1cn(C)c2ccc(NC(=O)OC3CCCC3)cc12 [PCM-0086066] | 47.6
14 | OCc1cc(C(O)CNCCCCCCOCCCCc2ccccc2)ccc1O (centres unmarked) [PCM-0065569] | -12.4
15 | CC1=C(C(=O)OCCN(Cc2ccccc2)c2ccccc2)C(c2cccc([N+](=O)[O-])c2)C(P2(=O)OCC(C)(C)CO2)=C(C)N1 (centres unmarked) [PCM-0215151] | 7.8
16 | O=P(O)(O)C(O)(Cc1cccnc1)P(=O)(O)O [PCM-0090360] | -3.4
17 | C[C@@]12CC[C@@H]3[C@@](CC[C@H]4[C@@]3(C)CCC[C@@]4(C)C(=O)O)(CC1=O)C2 [PCM-0215049] | -16.3
18 | O=C(NCc1cccc(O)c1)Nc1nc(-c2ccncc2)cs1 [PCM-0095724] | -4.8
19 | Cc1nc2n(c(=O)c1CCN1CCC(c3noc4cc(F)ccc34)CC1)CCCC2O (centres unmarked) [PCM-0065046] | 6
20 | Cc1ccc2nc(NCCN)c3ncc(C)n3c2c1 [PCM-0215260] | -16.6
21 | O=C1C[C@@H]2[C@@H](CO)[C@H](O)C[C@@H]2O1 [PCM-0216100] | -8.5
22 | CC(C)CCn1c(CN2CCN(C(=O)C3CC3)CC2)nc2c1c(=O)n(C)c(=O)n2C [PCM-0215566] | -13.9
23 | NS(=O)(=O)c1ccc(NC(=S)N2CCN(C/C=C/c3ccccc3)CC2)cc1 [PCM-0215808] | 2.3
24 | Cc1ccc(C(=O)c2ccc(CC(=O)O)n2C)cc1 [PCM-0215259] | 9.4
25 | O=c1[nH]cnc2nc[nH]c12 [PCM-0091022] | -22.1
26 | N#Cc1cc(-c2n[nH]c(-c3ccncc3)n2)ccn1 [PCM-0214916] | -18.7
27 | Cc1cc2c(F)c(Oc3ncnn4cc(OC[C@@H](C)OC(=O)[C@H](C)N)c(C)c34)ccc2[nH]1 [PCM-0094946] | -44.8
28 | COc1ccc(-c2coc3cc(O)cc(O)c3c2=O)cc1 [PCM-0086643] | 2.3

Row | SMILES | inhibition at 10 µM [%]
29 | COc1cc2c(cc1OC)[C@@H](Cc1ccc(Oc3cc(C[C@@H]4c5cc(OC)c(OC)cc5CCN4C)ccc3O)cc1)N(C)CC2 [PCM-0216529] | -9.3
30 | Cc1cccc(Cc2cnc[nH]2)c1C [PCM-0095257] | -20.2
31 | Cc1ncc(Cl)cc1NCc1ccc(C(=O)N[C@@H](CC2CCCC2)C(=O)NC2CC2)s1 [PCM-0215421] | 15.4
32 | O=C(Nc1cccc(C2=NCCN2)c1)Nc1cccc(C2=NCCN2)c1 [PCM-0216019] | -17
33 | N[C@@H](CO)C(=O)O [PCM-0216618] | 4.3
34 | O=C(/C=C/c1ccc(O)cc1)OC[C@H]1O[C@@H](Oc2c(-c3ccc(O)cc3)oc3cc(O)cc(O)c3c2=O)[C@H](O)[C@@H](O)[C@@H]1O [PCM-0216495] | 15.3
35 | CCOC(=O)c1c(C)n(C)c2ccc(O)cc12 [PCM-0095233] | -14
36 | CC(=O)OC(C)(C)CCC(=O)[C@](C)(O)[C@H]1[C@H](O)C[C@@]2(C)[C@@H]3CC=C4[C@@H](C[C@H](O)[C@@H](O)C4(C)C)[C@]3(C)C(=O)C[C@]12C [PCM-0214543] | -13.8
37 | CCNC(=O)c1[nH]nc(-c2cc(Cl)c(O)cc2O)c1-c1ccc(OC)cc1 [PCM-0215298] | 21.6
38 | Cc1csc(-c2nnc(Nc3ccc(Oc4ncccc4-c4ccnc(N)n4)cc3)c3ccccc23)c1 [PCM-0095438] | 97.9
39 | CNC1CCC(N(Cc2cccc(-c3ccncc3)c2)C(=O)c2sc3ccccc3c2Cl)CC1 (centres unmarked) [PCM-0215509] | -8.5
40 | CC/C(=C(/c1ccc(/C=C/C(=O)O)cc1)c1ccc2[nH]ncc2c1)c1ccc(F)cc1Cl [PCM-0216010] | 81.1
41 | O=c1cc(-c2ccc(O[C@@H]3O[C@H](CO)[C@@H](O)[C@H](O)[C@H]3O)cc2)oc2cc(O)c([C@@H]3O[C@H](CO)[C@@H](O)[C@H](O)[C@H]3O[C@@H]3OC[C@H](O)[C@H](O)[C@H]3O)c(O)c12 [PCM-0216482] | -22.4
42 | NS(=O)(=O)NCCNc1nonc1C(=Nc1ccc(F)c(Br)c1)NO [PCM-0215507] | -3.1
43 | CNC(=O)Nc1ccc(-c2nc(N3CC4CCC(C3)O4)c3cnn(C4CCC5(CC4)OCCO5)c3n2)cc1 [PCM-0095327] | 15.9
44 | CC(C)(C)n1nc(-c2ccc(Cl)cc2)c2c(N)ncnc21 [PCM-0095568] | 47.6
45 | NC(=O)N1c2ccccc2C=Cc2ccccc21 [PCM-0064618] | 9.3
46 | CNc1nc(Nc2cnn([C@H]3CCN(C4COC4)C[C@@H]3F)c2Cl)ncc1C(F)(F)F [PCM-0215360] | 0
47 | COc1cc(/C=C/C(=O)N2CCN(CC(=O)N3CCCC3)CC2)cc(OC)c1OC [PCM-0095532] | 0
48 | N#Cc1ccc(COC[C@H]2O[C@@H](n3c(NCc4ccc(Cl)c(Cl)c4)nc4c(N)ncnc43)[C@H](O)[C@@H]2O)cc1 [PCM-0215474] | 7.7
49 | O=C(O)CNC(=O)c1nc(Cl)c2ccccc2c1O [PCM-0215583] | 10.8
50 | COc1cc(-c2ncn(/C=C\C(=O)OC(C)C)n2)cc(C(F)(F)F)c1 [PCM-0215247] | -11.6
51 | COc1cc2c(=O)c3c(O)c([C@@H]4O[C@H](CO[C@@H]5OC[C@](O)(CO)[C@H]5O)[C@@H](O)[C@H](O)[C@H]4O)c(O)cc3oc2cc1O [PCM-0216492] | -13.1
52 | CC(C)c1nc(CN(C)C(=O)N[C@H](C(=O)N[C@@H](Cc2ccccc2)C[C@H](O)[C@H](Cc2ccccc2)NC(=O)OCc2cncs2)C(C)C)cs1 [PCM-0214603] | -19.5
53 | CC(C)=CCc1cc2c(cc1O)O[C@H](c1ccc(O)cc1)CC2=O [PCM-0216180] | 54.1

— paper PMC8041284, “Tunable Methacrylamides for Covalent Ligand Directed Release Chemistry” (Journal of the American Chemical Society, 2021)
